Source: the supplement of paper PMC10627819

Assays:
Details in all cases: main component drawn
S. aureus DSM 20231 = assay: Bliss interaction score (quartile over a dose matrix) (fitness difference); higher = more antagonism (negative = synergy)
In short: (§1)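 Fitness is OD595 at stationary-phase entry relative to the plate's robust no-drug mean, capped at 1. Single-drug fitness was inferred from combinations. The Bliss score is observed minus product-expected fitness, summarised by quartiles over technical, biological and donor/recipient replicates.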

S. pneumoniae D39V = assay: as above
In short: as §1

B. subtilis 168 [1] = assay: as above
In short: as §1

S. aureus Newman [2] = assay: as above
In short: as §1

B. subtilis 168 [3] = assay: fitness (endpoint OD595 vs no drug) (fraction); higher = more growth
In short: (§2)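 Fitness compares growth at the stationary-phase transition with the robust mean of no-drug control wells, as a ratio of optical densities. The ratio is capped at 1. Wells of 384-well plates held 30 µl, or 55 µl for S. pneumoniae, inoculated at OD595 0.01. Readings at OD595 every 30 min for 14 h at 37 °C were corrected against the first reading.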

S. aureus Newman [4] = assay: as above
In short: as §2
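Wherever Bliss interaction score (quartile over a dose matrix) is given: first quartile when negative (synergy) and third quartile when positive (antagonism).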

CC[C@H](C)[C@H](N)C1=N[C@H](C(=O)N[C@@H](CC(C)C)C(=O)N[C@H](CCC(=O)O)C(=O)N[C@H](C(=O)N[C@H]2CCCCNC(=O)[C@H](CC(N)=O)NC(=O)[C@@H](CC(=O)O)NC(=O)[C@H](Cc3cnc[nH]3)NC(=O)[C@@H](Cc3ccccc3)NC(=O)[C@H]([C@@H](C)CC)NC(=O)[C@@H](CCCN)NC2=O)[C@@H](C)CC)CS1 [Bacitracin] + COc1cccc2c1C(=O)c1c(O)c3c(c(O)c1C2=O)C[C@@](O)(C(=O)CO)C[C@@H]3O[C@H]1C[C@H](N)[C@H](O)[C@H](C)O1 [Doxorubicin]
Details	Bliss interaction score
B. subtilis 168 [1]	0.0797
S. aureus DSM 20231	0.115
S. aureus Newman [2]	0.0938
S. pneumoniae D39V	-0.0704

fitness
Details	partner 0.625 µg/mL	partner 1.25 µg/mL	partner 2.5 µg/mL
B. subtilis 168 [3], first compound 37.5 µg/mL	0.889	0.851	0.686
B. subtilis 168 [3], first compound 75 µg/mL	0.827	0.792	–
B. subtilis 168 [3], first compound 150 µg/mL	0.691	0.653	–
S. aureus Newman [4], first compound 18.75 µg/mL	0.607	0.598	0.513
S. aureus Newman [4], first compound 75 µg/mL	0.0711	0.0343	0.0074

CC[C@H](C)[C@H](N)C1=N[C@H](C(=O)N[C@@H](CC(C)C)C(=O)N[C@H](CCC(=O)O)C(=O)N[C@H](C(=O)N[C@H]2CCCCNC(=O)[C@H](CC(N)=O)NC(=O)[C@@H](CC(=O)O)NC(=O)[C@H](Cc3cnc[nH]3)NC(=O)[C@@H](Cc3ccccc3)NC(=O)[C@H]([C@@H](C)CC)NC(=O)[C@@H](CCCN)NC2=O)[C@@H](C)CC)CS1 [Bacitracin] + C[C@@H]1O[C@@H]1P(=O)(O)O [Fosfomycin]
Details	Bliss interaction score
B. subtilis 168 [1]	0.0941
S. aureus DSM 20231	0.109
S. aureus Newman [2]	0.102
S. pneumoniae D39V	-0.0469

fitness
Details	first compound 18.75 µg/mL	first compound 37.5 µg/mL	first compound 75 µg/mL	first compound 150 µg/mL
B. subtilis 168 [3], partner 1.562 µg/mL	–	0.697	0.662	0.607
B. subtilis 168 [3], partner 3.124 µg/mL	–	0.61	0.594	0.488
B. subtilis 168 [3], partner 6.248 µg/mL	–	0.501	0.51	0.427
S. aureus Newman [4], partner 0.781 µg/mL	0.507	0.0984	0.0911	–
S. aureus Newman [4], partner 1.562 µg/mL	0.471	–	0.0362	–
S. aureus Newman [4], partner 3.124 µg/mL	0.174	0.0141	0.0222	–

CC[C@H](C)[C@H](N)C1=N[C@H](C(=O)N[C@@H](CC(C)C)C(=O)N[C@H](CCC(=O)O)C(=O)N[C@H](C(=O)N[C@H]2CCCCNC(=O)[C@H](CC(N)=O)NC(=O)[C@@H](CC(=O)O)NC(=O)[C@H](Cc3cnc[nH]3)NC(=O)[C@@H](Cc3ccccc3)NC(=O)[C@H]([C@@H](C)CC)NC(=O)[C@@H](CCCN)NC2=O)[C@@H](C)CC)CS1 [Bacitracin] + C[n+]1ccc(-c2cc[n+](C)cc2)cc1 [Paraquat]
Details	Bliss interaction score
B. subtilis 168 [1]	0.115
S. aureus DSM 20231	-0.0542
S. aureus Newman [2]	0.0836
S. pneumoniae D39V	0.0921

fitness
Details	first compound 18.75 µg/mL	first compound 37.5 µg/mL	first compound 75 µg/mL	first compound 150 µg/mL
B. subtilis 168 [3], partner 1.25 µg/mL	–	0.931	0.924	0.844
B. subtilis 168 [3], partner 2.5 µg/mL	–	0.886	0.846	0.826
B. subtilis 168 [3], partner 5 µg/mL	–	0.746	0.656	–
S. aureus Newman [4], partner 1.25 µg/mL	0.673	0.276	0.0637	–
S. aureus Newman [4], partner 2.5 µg/mL	0.725	0.315	0.0696	–
S. aureus Newman [4], partner 5 µg/mL	0.669	0.349	0.0708	–

CC[C@H](C)[C@H](N)C1=N[C@H](C(=O)N[C@@H](CC(C)C)C(=O)N[C@H](CCC(=O)O)C(=O)N[C@H](C(=O)N[C@H]2CCCCNC(=O)[C@H](CC(N)=O)NC(=O)[C@@H](CC(=O)O)NC(=O)[C@H](Cc3cnc[nH]3)NC(=O)[C@@H](Cc3ccccc3)NC(=O)[C@H]([C@@H](C)CC)NC(=O)[C@@H](CCCN)NC2=O)[C@@H](C)CC)CS1 [Bacitracin] + Cc1cc(NS(=O)(=O)c2ccc(N)cc2)no1 [Sulfamethoxazol]
Details	Bliss interaction score
B. subtilis 168 [1]	0.0966
S. aureus DSM 20231	-0.0266
S. aureus Newman [2]	0.104
S. pneumoniae D39V	0.0767

fitness, one replicate
Details	first compound 18.75 µg/mL	first compound 37.5 µg/mL	first compound 75 µg/mL	first compound 150 µg/mL
B. subtilis 168 [3], partner 0.5 µg/mL	–	0.947	0.998	≥ 1
S. aureus Newman [4], partner 8 µg/mL	0.729	0.454	0.0253	–

fitness
Details	partner 1 µg/mL	partner 2 µg/mL	partner 4 µg/mL
B. subtilis 168 [3], first compound 37.5 µg/mL	0.856	0.855	0.941
B. subtilis 168 [3], first compound 75 µg/mL	0.832	0.851	0.852
S. aureus Newman [4], first compound 18.75 µg/mL	0.775	0.76	0.819
S. aureus Newman [4], first compound 75 µg/mL	0.0141	0.009	0.0028

CC[C@H](C)[C@H](N)C1=N[C@H](C(=O)N[C@@H](CC(C)C)C(=O)N[C@H](CCC(=O)O)C(=O)N[C@H](C(=O)N[C@H]2CCCCNC(=O)[C@H](CC(N)=O)NC(=O)[C@@H](CC(=O)O)NC(=O)[C@H](Cc3cnc[nH]3)NC(=O)[C@@H](Cc3ccccc3)NC(=O)[C@H]([C@@H](C)CC)NC(=O)[C@@H](CCCN)NC2=O)[C@@H](C)CC)CS1 [Bacitracin] + Cc1ncc([N+](=O)[O-])n1CCO [Metronidazole]
Details	Bliss interaction score
B. subtilis 168 [1]	0.103
S. aureus DSM 20231	0.0734
S. aureus Newman [2]	0.0714
S. pneumoniae D39V	0.127

fitness
Details	partner 0.625 µg/mL	partner 0.781 µg/mL	partner 1.25 µg/mL	partner 1.562 µg/mL	partner 2.5 µg/mL	partner 3.124 µg/mL
B. subtilis 168 [3], first compound 37.5 µg/mL	0.956	–	0.931	–	0.902	–
B. subtilis 168 [3], first compound 75 µg/mL	0.964	–	0.931	–	0.903	–
B. subtilis 168 [3], first compound 150 µg/mL	–	–	–	–	0.811	–
S. aureus Newman [4], first compound 18.75 µg/mL	0.741	0.702	0.757	0.716	0.743	0.687
S. aureus Newman [4], first compound 37.5 µg/mL	0.308	0.21	0.243	0.243	0.181	0.26
S. aureus Newman [4], first compound 75 µg/mL	0.0054	0.03	0.0112	0.0279	0.0054	0.0683

CC[C@H](C)[C@H](N)C1=N[C@H](C(=O)N[C@@H](CC(C)C)C(=O)N[C@H](CCC(=O)O)C(=O)N[C@H](C(=O)N[C@H]2CCCCNC(=O)[C@H](CC(N)=O)NC(=O)[C@@H](CC(=O)O)NC(=O)[C@H](Cc3cnc[nH]3)NC(=O)[C@@H](Cc3ccccc3)NC(=O)[C@H]([C@@H](C)CC)NC(=O)[C@@H](CCCN)NC2=O)[C@@H](C)CC)CS1 [Bacitracin] + Cc1onc(-c2ccccc2)c1C(=O)N[C@@H]1C(=O)N2[C@@H]1SC(C)(C)[C@@H]2C(=O)O [Oxacillin]
Details	Bliss interaction score
B. subtilis 168 [1]	-0.0456
S. aureus DSM 20231	0.0803
S. aureus Newman [2]	-0.118
S. pneumoniae D39V	-0.107

fitness
Details	first compound 18.75 µg/mL	first compound 37.5 µg/mL	first compound 75 µg/mL
B. subtilis 168 [3], partner 0.002 µg/mL	–	0.958	0.959
B. subtilis 168 [3], partner 0.004 µg/mL	–	0.955	0.913
B. subtilis 168 [3], partner 0.008 µg/mL	–	0.924	0.835
S. aureus Newman [4], partner 0.0156 µg/mL	0.534	0.0937	0.0408
S. aureus Newman [4], partner 0.0312 µg/mL	–	0.0243	0.0443
S. aureus Newman [4], partner 0.0625 µg/mL	0.0815	0.0177	0.0488

fitness, B. subtilis 168 [3], one replicate
Details	partner 0.0078 µg/mL	partner 0.0155 µg/mL	partner 0.031 µg/mL	partner 0.075 µg/mL	partner 0.15 µg/mL	partner 0.3 µg/mL
first compound 37.5 µg/mL	0.79	0.782	0.742	0.58	0.0238	0.0295
first compound 75 µg/mL	0.778	0.76	0.701	0.496	0.0193	0.0177
first compound 150 µg/mL	0.447	0.36	0.316	0.242	0.0097	0.0106

CC[C@H](C)[C@H](N)C1=N[C@H](C(=O)N[C@@H](CC(C)C)C(=O)N[C@H](CCC(=O)O)C(=O)N[C@H](C(=O)N[C@H]2CCCCNC(=O)[C@H](CC(N)=O)NC(=O)[C@@H](CC(=O)O)NC(=O)[C@H](Cc3cnc[nH]3)NC(=O)[C@@H](Cc3ccccc3)NC(=O)[C@H]([C@@H](C)CC)NC(=O)[C@@H](CCCN)NC2=O)[C@@H](C)CC)CS1 [Bacitracin] + O=C(O)c1cn(C2CC2)c2cc(N3CCNCC3)c(F)cc2c1=O [Ciprofloxacin]
Details	Bliss interaction score
B. subtilis 168 [1]	-0.0665
S. aureus DSM 20231	-0.0438
S. aureus Newman [2]	-0.0418
S. pneumoniae D39V	-0.13

fitness
Details	first compound 18.75 µg/mL	first compound 37.5 µg/mL	first compound 75 µg/mL	first compound 150 µg/mL
B. subtilis 168 [3], partner 0.0098 µg/mL	–	0.88	0.889	0.897
B. subtilis 168 [3], partner 0.0195 µg/mL	–	0.718	0.659	0.559
B. subtilis 168 [3], partner 0.039 µg/mL	–	0.201	0.0773	0.0355
S. aureus Newman [4], partner 0.0375 µg/mL	0.524	0.199	0.0079	–
S. aureus Newman [4], partner 0.075 µg/mL	–	0.0916	0.013	–
S. aureus Newman [4], partner 0.15 µg/mL	0.0536	0.0155	0.0083	–

CC[C@H](C)[C@H](N)C1=N[C@H](C(=O)N[C@@H](CC(C)C)C(=O)N[C@H](CCC(=O)O)C(=O)N[C@H](C(=O)N[C@H]2CCCCNC(=O)[C@H](CC(N)=O)NC(=O)[C@@H](CC(=O)O)NC(=O)[C@H](Cc3cnc[nH]3)NC(=O)[C@@H](Cc3ccccc3)NC(=O)[C@H]([C@@H](C)CC)NC(=O)[C@@H](CCCN)NC2=O)[C@@H](C)CC)CS1 [Bacitracin] + O=C(O[C@@H]1Cc2c(O)cc(O)cc2O[C@@H]1c1cc(O)c(O)c(O)c1)c1cc(O)c(O)c(O)c1 [EGCG]
Details	Bliss interaction score
B. subtilis 168 [1]	0.0767
S. aureus DSM 20231	-0.0223
S. aureus Newman [2]	0.124
S. pneumoniae D39V	-0.0707

fitness
Details	first compound 18.75 µg/mL	first compound 37.5 µg/mL	first compound 75 µg/mL	first compound 150 µg/mL
B. subtilis 168 [3], partner 6.25 µg/mL	–	0.876	0.885	0.827
B. subtilis 168 [3], partner 12.5 µg/mL	–	–	–	0.562
S. aureus Newman [4], partner 12.5 µg/mL	0.73	0.43	0.0108	–
S. aureus Newman [4], partner 25 µg/mL	0.632	0.283	0.0073	–
S. aureus Newman [4], partner 50 µg/mL	0.444	0.192	0.0184	–
